Measurements reported in patent US10722520B2, “Heterocyclic compounds and their use in preventing or treating bacterial infections” (MUTABILIS, priority 2016, dated 2020).
pIC50: −log10 of the molar value. Read-outs that look alike come from different tables or passages of the source.

Tests used:
E. coli 190317 = assay: MIC of ceftazidime (CAZ) at fixed concentration of compound (synergy), broth microdilution; type: cell-based; conditions: MIC of ceftazidime with compound fixed at 4 μg/mL; strain 190317 (E. coli)
Procedure, shortened: (§1)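 Step one, log-phase suspension set to 5×10^5 cfu/mL final in CA-MHB. Step two, incubation at 35° C under ambient air for 16-20 h. Step three, visual reading of the lowest growth-free concentration as MIC.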

K. pneumoniae BAA-1898 = assay: as above; type: cell-based; conditions: MIC of ceftazidime with compound fixed at 4 μg/mL; strain BAA-1898 (K. pneumoniae)
Procedure, shortened: as §1

E. coli UFR18 = assay: as above; type: cell-based; conditions: MIC of ceftazidime with compound fixed at 4 μg/mL; strain UFR18 (E. coli)
Procedure, shortened: as §1

K. pneumoniae 160143 = assay: as above; type: cell-based; conditions: MIC of ceftazidime with compound fixed at 4 μg/mL; strain 160143 (K. pneumoniae)
Procedure, shortened: as §1

E. cloacae UFR51 = assay: as above; type: cell-based; conditions: MIC of ceftazidime with compound fixed at 4 μg/mL; strain UFR51 (E. cloacae)
Procedure, shortened: as §1

E. cloacae UFR85 = assay: as above; type: cell-based; conditions: MIC of ceftazidime with compound fixed at 4 μg/mL; strain UFR85 (E. cloacae)
Procedure, shortened: as §1

E. coli UFR32 [1] = assay: as above; type: cell-based; conditions: MIC of ceftazidime with compound fixed at 4 μg/mL; strain UFR32 (E. coli)
Procedure, shortened: as §1

E. coli 131119 = assay: as above; type: cell-based; conditions: MIC of ceftazidime with compound fixed at 4 μg/mL; strain 131119 (E. coli)
Procedure, shortened: as §1

E. cloacae P99 [2] = assay: as above; type: cell-based; conditions: MIC of ceftazidime with compound fixed at 4 μg/mL; strain P99 (E. cloacae)
Procedure, shortened: as §1

E. coli UFR39 = assay: as above; type: cell-based; conditions: MIC of ceftazidime with compound fixed at 4 μg/mL; strain UFR39 (E. coli)
Procedure, shortened: as §1

E. coli UFR74 = assay: as above; type: cell-based; conditions: MIC of ceftazidime with compound fixed at 4 μg/mL; strain UFR74 (E. coli)
Procedure, shortened: as §1

K. pneumoniae 200047 = assay: as above; type: cell-based; conditions: MIC of ceftazidime with compound fixed at 4 μg/mL; strain 200047 (K. pneumoniae)
Procedure, shortened: as §1

K. pneumoniae UFR77 = assay: as above; type: cell-based; conditions: MIC of ceftazidime with compound fixed at 4 μg/mL; strain UFR77 (K. pneumoniae)
Procedure, shortened: as §1

E. coli UFR41 = assay: as above; type: cell-based; conditions: MIC of ceftazidime with compound fixed at 4 μg/mL; strain UFR41 (E. coli)
Procedure, shortened: as §1

K. oxytoca UFR21 = assay: as above; type: cell-based; conditions: MIC of ceftazidime with compound fixed at 4 μg/mL; strain UFR21 (K. oxytoca)
Procedure, shortened: as §1

E. cloacae UFR70 = assay: as above; type: cell-based; conditions: MIC of ceftazidime with compound fixed at 4 μg/mL; strain UFR70 (E. cloacae)
Procedure, shortened: as §1

P. aeruginosa CIP107051 [3] = assay: as above; type: cell-based; conditions: MIC of ceftazidime with compound fixed at 4 μg/mL; strain CIP107051 (P. aeruginosa)
Procedure, shortened: as §1

E. coli UFR61O = assay: as above; type: cell-based; conditions: MIC of ceftazidime with compound fixed at 4 μg/mL; strain UFR61O (E. coli)
Procedure, shortened: as §1

K. pneumoniae UFR68 = assay: as above; type: cell-based; conditions: MIC of ceftazidime with compound fixed at 4 μg/mL; strain UFR68 (K. pneumoniae)
Procedure, shortened: as §1

E. cloacae 260508 = assay: as above; type: cell-based; conditions: MIC of ceftazidime with compound fixed at 4 μg/mL; strain 260508 (E. cloacae)
Procedure, shortened: as §1

E. coli RGN238 [4] = assay: as above; type: cell-based; conditions: MIC of ceftazidime with compound fixed at 4 μg/mL; strain RGN238 (E. coli)
Procedure, shortened: as §1

K. pneumoniae UFR24 = assay: as above; type: cell-based; conditions: MIC of ceftazidime with compound fixed at 4 μg/mL; strain UFR24 (K. pneumoniae)
Procedure, shortened: as §1

K. pneumoniae 6299 = assay: as above; type: cell-based; conditions: MIC of ceftazidime with compound fixed at 4 μg/mL; strain 6299 (K. pneumoniae)
Procedure, shortened: as §1

E. coli UFR32 [5] = assay: MIC of compound alone, broth microdilution; type: cell-based; conditions: strain UFR32: E. coli, TEM-1, VEB-1, OXA-10; for MIC: Escherichia coli, read-out: MIC compounds of the invention alone
Procedure, shortened: as §1

E. cloacae P99 [6] = assay: MIC of compound alone, broth microdilution; type: cell-based; conditions: strain P99: E. cloacae, AmpC; for MIC: Enterobacter cloacae, read-out: MIC compounds of the invention alone
Procedure, shortened: as §1

P. aeruginosa CIP107051 [7] = assay: MIC of compound alone, broth microdilution; type: cell-based; conditions: strain CIP107051: P. aeruginosa, TEM-24; for MIC: Pseudomonas aeruginosa, read-out: MIC compounds of the invention alone
Procedure, shortened: as §1

CMY-37 = CMY-37 (Citrobacter freundii, UniProt P05193); conditions: read-out: IC50 β-lactamase CMY-37; class (C); nitrocefin 200 μM, 30-min pre-incubation, enzyme 0.2 nM
TEM-1 = TEM-1 (Escherichia coli, UniProt P62593)
E. coli RGN238 [8] = assay: microbe, parasite or virus in culture; type: cell-based; conditions: for MIC: Escherichia coli, RGN238, read-out: MIC compounds of the invention alone
Procedure: Log phase bacterial suspensions were adjusted to a final density of 5×10^5 cfu/mL in cation-adjusted Mueller-Hinton broth (Becton-Dickinson) and added to each well (98 μL). Microplates were incubated for 16-20 h at 35° C. in ambient air. The MIC of the compounds was defined as the lowest concentration of said compounds that prevented bacterial growth as read by visual inspection.

OXA-15 = OXA-15 (Pseudomonas aeruginosa, UniProt Q51574); assay: biochemical
OXA-15, sequence (Q51574 22-275): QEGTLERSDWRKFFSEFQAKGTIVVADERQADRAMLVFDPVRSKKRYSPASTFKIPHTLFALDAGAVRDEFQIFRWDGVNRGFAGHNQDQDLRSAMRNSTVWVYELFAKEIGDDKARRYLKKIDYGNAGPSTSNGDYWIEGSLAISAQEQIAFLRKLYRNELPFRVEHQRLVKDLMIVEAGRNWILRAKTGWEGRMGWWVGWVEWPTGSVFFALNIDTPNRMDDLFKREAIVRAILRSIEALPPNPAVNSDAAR

TEM-1, sequence (P62593 24-286 limits assumed): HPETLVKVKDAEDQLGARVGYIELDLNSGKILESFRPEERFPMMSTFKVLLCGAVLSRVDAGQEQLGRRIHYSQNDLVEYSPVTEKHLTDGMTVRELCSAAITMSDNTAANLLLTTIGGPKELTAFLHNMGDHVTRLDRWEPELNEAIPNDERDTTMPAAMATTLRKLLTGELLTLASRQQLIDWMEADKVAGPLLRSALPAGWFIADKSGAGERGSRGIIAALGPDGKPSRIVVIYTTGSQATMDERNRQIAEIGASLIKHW
CMY-37, sequence (P05193 21-381 limits assumed): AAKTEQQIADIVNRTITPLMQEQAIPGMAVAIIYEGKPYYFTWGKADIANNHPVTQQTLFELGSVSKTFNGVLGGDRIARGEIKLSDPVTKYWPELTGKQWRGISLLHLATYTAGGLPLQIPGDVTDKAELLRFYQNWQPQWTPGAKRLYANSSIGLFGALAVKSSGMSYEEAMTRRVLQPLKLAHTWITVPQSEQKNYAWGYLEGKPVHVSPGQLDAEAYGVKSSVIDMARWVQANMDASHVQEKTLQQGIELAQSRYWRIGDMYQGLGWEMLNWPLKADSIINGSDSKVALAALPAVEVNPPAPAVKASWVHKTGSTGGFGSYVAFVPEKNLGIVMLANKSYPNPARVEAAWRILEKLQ

Row | Compound | MIC combination of CAZ and compounds of the invention at 4 μg/mL (E. coli 190317) | MIC combination of CAZ and compounds of the invention at 4 μg/mL (K. pneumoniae BAA-1898) | MIC combination of CAZ and compounds of the invention at 4 μg/mL (E. coli UFR18) | MIC combination of CAZ and compounds of the invention at 4 μg/mL (K. pneumoniae 160143) | MIC combination of CAZ and compounds of the invention at 4 μg/mL (E. cloacae UFR51) | MIC combination of CAZ and compounds of the invention at 4 μg/mL (E. cloacae UFR85) | MIC combination of CAZ and compounds of the invention at 4 μg/mL (E. coli UFR32 [1]) | MIC combination of CAZ and compounds of the invention at 4 μg/mL (E. coli 131119) | MIC combination of CAZ and compounds of the invention at 4 μg/mL (E. cloacae P99 [2]) | MIC combination of CAZ and compounds of the invention at 4 μg/mL (E. coli UFR39) | MIC combination of CAZ and compounds of the invention at 4 μg/mL (E. coli UFR74) | MIC combination of CAZ and compounds of the invention at 4 μg/mL (K. pneumoniae 200047) | MIC combination of CAZ and compounds of the invention at 4 μg/mL (K. pneumoniae UFR77) | MIC combination of CAZ and compounds of the invention at 4 μg/mL (E. coli UFR41) | MIC combination of CAZ and compounds of the invention at 4 μg/mL (K. oxytoca UFR21) | MIC combination of CAZ and compounds of the invention at 4 μg/mL (E. cloacae UFR70) | MIC combination of CAZ and compounds of the invention at 4 μg/mL (P. aeruginosa CIP107051 [3]) | MIC combination of CAZ and compounds of the invention at 4 μg/mL (E. coli UFR61O) | MIC combination of CAZ and compounds of the invention at 4 μg/mL (K. pneumoniae UFR68) | MIC combination of CAZ and compounds of the invention at 4 μg/mL (E. cloacae 260508) | also measured
1 | O=C1N2CC(n3ccnn3)=CC(C2)N1OS(=O)(=O)[O-].[Na+] (stereo not drawn) [Example 2, sodium [7-oxo-3-(triazol-1-yl)-1,6-diazabicyclo[3.2.1]oct-3-en-6-yl]sulfate] | <0.25 | <0.25 | <0.25 | <0.25 | <0.25 | <0.25 | <0.25 | <0.25 | <0.25 | <0.25 | <0.25 | <0.25 | <0.25 | <0.25 | <0.25 | <0.25 | 4 | <0.25 | <0.25 | <0.25 | MIC combination of CAZ and compounds of the invention at 4 μg/mL (E. coli RGN238 [4]): <0.25; MIC combination of CAZ and compounds of the invention at 4 μg/mL (K. pneumoniae UFR24): ≤0.25; MIC combination of CAZ and compounds of the invention at 4 μg/mL (K. pneumoniae 6299): <0.25; MIC compounds of the invention alone (E. coli UFR32 [5]): 1 µg/mL; MIC compounds of the invention alone (E. cloacae P99 [6]): 1 µg/mL; MIC compounds of the invention alone (P. aeruginosa CIP107051 [7]): >32 µg/mL; pIC50 (CMY-37): 7.51; pIC50 (TEM-1; read-out: IC50 β-lactamase TEM-1, class (A), nitrocefin 200 μM, 30-min pre-incubation, enzyme 0.1 nM): 9.25; MIC compounds of the invention alone (E. coli RGN238 [8]; strain RGN238: E. coli, OXA-1): 2 µg/mL
2 | O=C1N2CC(n3nccn3)=CC(C2)N1OS(=O)(=O)O (stereo not drawn) [Example 3, sodium [7-oxo-3-(triazol-2-yl)-1,6-diazabicyclo[3.2.1]oct-3-en-6-yl]sulfate] | <0.25 | 0.5 | <0.25 | <0.25 | <0.25 | <0.25 | <0.25 | <0.25 | ≤0.25 | >128 | <0.25 | <0.25 | <0.25 | >128 | 0.5 | <0.25 | 4 | ≤0.25 | 0.5 | <0.25 | MIC combination of CAZ and compounds of the invention at 4 μg/mL (E. coli RGN238 [4]): <0.25; MIC combination of CAZ and compounds of the invention at 4 μg/mL (K. pneumoniae UFR24): ≤0.25; MIC combination of CAZ and compounds of the invention at 4 μg/mL (K. pneumoniae 6299): <0.25; pIC50 (OXA-15): 6.72; MIC (E. coli UFR32 [5]): 2 µg/mL; MIC (E. cloacae P99 [6]): 8 µg/mL; MIC (P. aeruginosa CIP107051 [7]): > 32 µg/mL; pIC50 (TEM-1): 9.14; MIC (E. coli RGN238 [8]): 2 µg/mL
3 | O=C1N2CC(n3ccnn3)=C[C@H](C2)N1OS(=O)(=O)O [Example 6, sodium [(5R)-7-oxo-3-(triazol-1-yl)-1,6-diazabicyclo[3.2.1]oct-3-en-6-yl]sulfate] | <0.25 | <0.25 | <0.25 | <0.25 | <0.25 | <0.25 | <0.25 | <0.25 | <0.25 | <0.25 | <0.25 | <0.25 | <0.25 | <0.25 | <0.25 | <0.25 | 4 | <0.25 | <0.25 | <0.25 | MIC combination of CAZ and compounds of the invention at 4 μg/mL (E. coli RGN238 [4]): <0.25; MIC combination of CAZ and compounds of the invention at 4 μg/mL (K. pneumoniae UFR24): <0.25; MIC combination of CAZ and compounds of the invention at 4 μg/mL (K. pneumoniae 6299): <0.25; pIC50 (OXA-15): 7.68; MIC (E. coli UFR32 [5]): 0.5 µg/mL; MIC (E. cloacae P99 [6]): 1 µg/mL; MIC (P. aeruginosa CIP107051 [7]): 32 µg/mL; pIC50 (TEM-1): 9.44; MIC (E. coli RGN238 [8]): 1 µg/mL
